Consider 18 compounds from PubChem BioAssay AID328 (DTP/NCI, 2004).

“And” between values parts separate entries of the source, which are not always exact repeats. Identical values can stand only once. Inconclusive results and toxic doses are left out.

The test system of this assay is BDF1 mice, P388 leukemia ip, median survival T/C. The experiment in a line: NCI In Vivo Anticancer Drug Screen. Data for tumor model P388 Leukemia (intraperitoneal) in B6D2F1 (BDF1) mice. Conditions: endpoint: median survival time, higher = longer survival. The essentials:
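Antitumour effect was judged in vivo: survival in drug-treated mice, normalised to that of vehicle-dosed controls, gives the reported T/C.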

[1] abbreviates: dose: 100.0 mg/kg/injection, schedule: Q01DX009 (ip), vehicle: Klucel (hydroxypropylcellulose) (HPC).
The mark [2] stands for this setting: dose: 100.0 mg/kg/injection, schedule: Q04DX003 (ip), vehicle: Klucel (hydroxypropylcellulose) (HPC).
The mark [3] stands for this setting: dose: 200.0 mg/kg/injection, schedule: Q01DX009 (ip), vehicle: Klucel (hydroxypropylcellulose) (HPC).
Where [4] appears, read: dose: 200.0 mg/kg/injection, schedule: Q04DX003 (ip), vehicle: Klucel (hydroxypropylcellulose) (HPC).
[5] abbreviates: dose: 400.0 mg/kg/injection, schedule: Q01DX009 (ip), vehicle: Klucel (hydroxypropylcellulose) (HPC).
Where [6] appears, read: dose: 400.0 mg/kg/injection, schedule: Q04DX003 (ip), vehicle: Klucel (hydroxypropylcellulose) (HPC).
The mark [7] stands for this setting: dose: 100.0 mg/kg/injection, schedule: Q01DX009 (ip), vehicle: saline with Tween-80.
The mark [8] stands for this setting: dose: 200.0 mg/kg/injection, schedule: Q01DX009 (ip), vehicle: saline with Tween-80.
Where [9] appears, read: dose: 100.0 mg/kg/injection, schedule: Q04DX003 (ip), vehicle: saline with Tween-80.
[10] abbreviates: dose: 200.0 mg/kg/injection, schedule: Q04DX003 (ip), vehicle: saline with Tween-80.
The mark [11] stands for this setting: dose: 400.0 mg/kg/injection, schedule: Q04DX003 (ip), vehicle: saline with Tween-80.
Setting [12] is: dose: 50.0 mg/kg/injection, schedule: Q01DX009 (ip), vehicle: saline with Tween-80.
Setting [13] is: dose: 12.5 mg/kg/injection, schedule: Q01DX009 (ip), vehicle: saline with Tween-80.
Setting [14] is: dose: 25.0 mg/kg/injection, schedule: Q01DX009 (ip), vehicle: saline with Tween-80.

On to `COC(=O)Nc1nc2ccc(Br)cc2[nH]1`, for which the T/C under setting [1] is 104 % of control; the T/C under setting [2] is 109 % of control; the T/C under setting [3] is 112 % of control; the T/C under setting [4] was 109 % of control; the T/C under setting [5] is 116 % of control; the T/C under setting [6] was 113 % of control.

As to `CC1=CC(=O)[C@@H](O)[C@]2(C)[C@H]3[C@@]4(O)OC[C@]35[C@H]([C@@H](C)[C@H]4O)[C@@H](O)C(=O)O[C@@H]5C[C@@H]12`, the T/C reads like this: (dose: 1.0 mg/kg/injection, schedule: Q01DX010 (ip), vehicle: steriod suspending solution) 150 % of control; (dose: 1.5 mg/kg/injection, schedule: Q01DX010 (ip), vehicle: acetone) 100 % of control; (dose: 2.0 mg/kg/injection, schedule: Q01DX010 (ip), vehicle: steriod suspending solution) 107 % of control; (dose: 3.0 mg/kg/injection, schedule: Q01DX010 (ip), vehicle: acetone) 103 % of control; (dose: 4.0 mg/kg/injection, schedule: Q01DX010 (ip), vehicle: steriod suspending solution) 107 % of control; (dose: 6.0 mg/kg/injection, schedule: Q01DX010 (ip), vehicle: acetone) 115 % of control. Further, the T/C (dose: 8.0 mg/kg/injection, schedule: Q01DX010 (ip), vehicle: steriod suspending solution) was 150 % of control and the T/C (dose: 12.0 mg/kg/injection, schedule: Q01DX010 (ip), vehicle: acetone) was 123 % of control.

Take `Oc1ccc2ccccc2c1N=Nc1ccc(Cl)cc1`: the T/C reads like this: under setting [7], 104 % of control; under setting [8], 95 % of control; (dose: 400.0 mg/kg/injection, schedule: Q01DX009 (ip), vehicle: saline with Tween-80) 95 % of control.

On to `Nc1ncnc2c1c(C(=O)O)cn2C1OC(CO)C(O)C1O` (centres undefined), for which the T/C is, setting by setting: (dose: 66.0 mg/kg/injection, schedule: Q04DX003 (ip), vehicle: saline with Tween-80) 160 % of control; under setting [9], 150 % of control and 170 % of control.

Regarding `CC(NC(=O)/C=C\C(=O)O)c1ccccc1` (centres undefined), the T/C under setting [9] is 100 % of control, the T/C under setting [10] was 91 % of control and the T/C under setting [11] is 112 % of control.

With `COc1ccc(C(C)c2ccccc2)cc1C(C)c1ccccc1` (centres undefined), the T/C runs as follows: under setting [9], 109 % of control; under setting [10], 90 % of control; under setting [11], 100 % of control.

Consider `O=C(Nc1ccc(F)cc1)C(F)(F)F`, for which the T/C is 106 % of control under setting [12], 98 % of control under setting [7] and 105 % of control under setting [8].

`CN(C)c1ccc(-c2nc3ccccn3c2N)cc1`: the T/C (dose: 1.56 mg/kg/injection, schedule: Q01DX009 (ip), vehicle: saline) was 105 % of control; the T/C (dose: 3.13 mg/kg/injection, schedule: Q01DX009 (ip), vehicle: saline) was 96 % of control; the T/C (dose: 6.25 mg/kg/injection, schedule: Q01DX009 (ip), vehicle: saline) is 113 % of control.

Take `CCCCNC(=O)c1ccccc1Sc1ccccc1C(=O)NCCCC`: the T/C (dose: 100.0 mg/kg/injection, schedule: Q04DX002 (ip), vehicle: saline with Tween-80) is 107 % of control; the T/C (dose: 200.0 mg/kg/injection, schedule: Q04DX002 (ip), vehicle: saline with Tween-80) is 109 % of control; the T/C (dose: 400.0 mg/kg/injection, schedule: Q04DX002 (ip), vehicle: saline with Tween-80) is 104 % of control.

Take `c1c(NC2=NCCO2)cc2c3c1CCCN3CCC2`: the T/C reads like this: under setting [13], 104 % of control; under setting [14], 118 % of control; under setting [12], 113 % of control.

`CCOC(=O)CC(C)C(Br)(C(=O)OCC)C(=O)OCC` (centres undefined): the T/C reads like this: (dose: 25.0 mg/kg/injection, schedule: Q01DX009 (ip), vehicle: water) 110 % of control; (dose: 25.0 mg/kg/injection, schedule: Q04DX003 (ip), vehicle: water) 108 % of control; (dose: 50.0 mg/kg/injection, schedule: Q01DX009 (ip), vehicle: water) 121 % of control; (dose: 50.0 mg/kg/injection, schedule: Q04DX003 (ip), vehicle: water) 110 % of control; (dose: 100.0 mg/kg/injection, schedule: Q01DX009 (ip), vehicle: water) 114 % of control; (dose: 100.0 mg/kg/injection, schedule: Q04DX003 (ip), vehicle: water) 117 % of control. Further, the T/C (dose: 200.0 mg/kg/injection, schedule: Q04DX003 (ip), vehicle: water) is 106 % of control.

For the compound `CC1(C)C(=O)N(Cl)C(=O)N1Cl`, the T/C reads like this: (dose: 6.25 mg/kg/injection, schedule: Q01DX009 (ip), vehicle: saline with Tween-80) 109 % of control; under setting [13], 113 % of control; under setting [14], 263 % of control.

As to `Cc1ccc(NC(=O)c2ccc(Cl)cc2)cc1`, the T/C under setting [1] was 100 % of control; the T/C under setting [2] is 108 % of control; the T/C under setting [3] is 109 % of control; the T/C under setting [4] is 104 % of control; the T/C under setting [5] is 90 % of control; the T/C under setting [6] was 104 % of control.

Regarding `O=[N+]([O-])C1(Cl)CCCCC1`, the T/C was 112 % of control (dose: 6.25 mg/kg/injection, schedule: Q01DX009 (ip), vehicle: Klucel (hydroxypropylcellulose) (HPC)); 108 % of control (dose: 12.5 mg/kg/injection, schedule: Q01DX009 (ip), vehicle: Klucel (hydroxypropylcellulose) (HPC)); 102 % of control and 105 % of control (dose: 25.0 mg/kg/injection, schedule: Q01DX009 (ip), vehicle: Klucel (hydroxypropylcellulose) (HPC)).

Consider `COc1cc(-c2ccc(O)cc2)c(OC)c(O)c1-c1ccc(O)c(O)c1`, for which the T/C is, setting by setting: (dose: 1.25 mg/kg/injection, schedule: Q01DX009 (ip), vehicle: Klucel (hydroxypropylcellulose) (HPC)) 97 % of control; (dose: 2.5 mg/kg/injection, schedule: Q01DX009 (ip), vehicle: Klucel (hydroxypropylcellulose) (HPC)) 96 % of control; (dose: 5.0 mg/kg/injection, schedule: Q01DX009 (ip), vehicle: Klucel (hydroxypropylcellulose) (HPC)) 98 % of control; (dose: 10.0 mg/kg/injection, schedule: Q01DX009 (ip), vehicle: Klucel (hydroxypropylcellulose) (HPC)) 95 % of control; (dose: 20.0 mg/kg/injection, schedule: Q01DX009 (ip), vehicle: Klucel (hydroxypropylcellulose) (HPC)) 97 % of control; (dose: 40.0 mg/kg/injection, schedule: Q01DX009 (ip), vehicle: Klucel (hydroxypropylcellulose) (HPC)) 97 % of control.

For `CCOC(=O)C1CCCNC1` (centres undefined), the T/C is, setting by setting: (dose: 100.0 mg/kg/injection, schedule: Q01DX009 (ip), vehicle: saline) 104 % of control; (dose: 100.0 mg/kg/injection, schedule: Q04DX003 (ip), vehicle: saline) 95 % of control; (dose: 200.0 mg/kg/injection, schedule: Q01DX009 (ip), vehicle: saline) 100 % of control; (dose: 200.0 mg/kg/injection, schedule: Q04DX003 (ip), vehicle: saline) 91 % of control; (dose: 400.0 mg/kg/injection, schedule: Q01DX009 (ip), vehicle: saline) 112 % of control; (dose: 400.0 mg/kg/injection, schedule: Q04DX003 (ip), vehicle: saline) 87 % of control.

As for `CN(C)c1ccc(/C=C/c2cc(N(CCO)CCO)c3ccccc3n2)cc1`, the T/C reads like this: under setting [12], 100 % of control; under setting [7], 99 % of control; under setting [8], 91 % of control.

Take `CC(N)(/C=C/c1ccccc1)C(=O)O` (centres undefined): the T/C (dose: 50.0 mg/kg/injection, schedule: Q01DX005 (ip), vehicle: saline with Tween-80) was 101 % of control; the T/C (dose: 100.0 mg/kg/injection, schedule: Q01DX005 (ip), vehicle: saline with Tween-80) is 97 % of control; the T/C (dose: 200.0 mg/kg/injection, schedule: Q01DX005 (ip), vehicle: saline with Tween-80) is 113 % of control.
